Consider 12 compounds from patent US10196403B2, “Compounds and compositions and uses thereof” (Sunovion Pharmaceuticals Inc., priority 2016, dated 2019).

Each structure is given as a SMILES string.

The assay concerns mice. Description: Neuropharmacological Assay (SmartCube). Particulars: for minimal effective dose: Mus musculus, read-out: POTENCY (minimal effective dose, MED); for AD: ADHD (SmartCube probability) / AG: analgesic (SmartCube probability) / AX: anxiolytic (SmartCube probability) / CE: cognitive enhancer (SmartCube probability) / DP: anti-depressant (SmartCube probability) / MS: mood stabilizer (SmartCube probability) / PS: anti-psychotic (SmartCube probability) / SD: sedative hypnotic (SmartCube probability) / UN: uncharacterized CNS activity (SmartCube probability): mice, i.p. 15 min before test, most efficacious dose(s) of 3 doses. The class given is in vivo. The procedure, abridged: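 Behavior of treated mice captured by digital video and matched algorithmically against reference drug classes, yielding a class probability at the most efficacious of 3 i.p. doses (15 min pretreatment, NMP/PEG/propylene glycol vehicle). Potency given as MED, the mpk dose reaching ≥50% total activity across usually 0.3–30 mpk.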

[1] abbreviates: MED = dose having 50% or more total activity in SmartCube.

As for `CNC[C@H]1OCCc2cccc(Cl)c21` [Example 36, (S)-1-(8-chloroisochroman-1-yl)-N-methylmethanamine], the “AD: ADHD (SmartCube probability)” value is on record as “+ (LOQ≤ + <5%)”, the “AG: analgesic (SmartCube probability)” value is “+ (LOQ≤ + <5%)”, the “AX: anxiolytic (SmartCube probability)” value is listed as “++ (5%≤ ++ <25%)” and the “CE: cognitive enhancer (SmartCube probability)” value (from here on “CE: cognitive enhancer”) is “++ (5%≤ ++ <25%)”. In addition, the “DP: anti-depressant (SmartCube probability)” value (from here on “DP: anti-depressant”) was “+ (LOQ≤ + <5%)”, the “MS: mood stabilizer (SmartCube probability)” value (shortened to “MS: mood stabilizer”) is reported as “+ (LOQ≤ + <5%)”, the “PS: anti-psychotic (SmartCube probability)” value (“PS: anti-psychotic” below) is on record as “++ (5%≤ ++ <25%)” and the “SD: sedative hypnotic (SmartCube probability)” value (“SD: sedative hypnotic” for short) was “+ (LOQ≤ + <5%)”. Also, the “UN: uncharacterized CNS activity (SmartCube probability)” value (“UN: uncharacterized CNS activity” for short) is “+++ (25%≤ +++ <50%)”. Under setting [1], the minimal effective dose (in general, the lowest level tested that produced the effect sought) lay in the range of 3 to 10 mg/kg.
As for `NC[C@H]1OCCc2c(Cl)cccc21` [Example 66, (S)-(5-chloroisochroman-1-yl)methanamine], the “AD: ADHD (SmartCube probability)” value is listed as “+ (LOQ≤ + <5%)”, the “AG: analgesic (SmartCube probability)” value is reported as “+ (LOQ≤ + <5%)”, the “AX: anxiolytic (SmartCube probability)” value is “++ (5%≤ ++ <25%)” and the “CE: cognitive enhancer” value was “+ (LOQ≤ + <5%)”. For the same compound, the “DP: anti-depressant” value is on record as “++++ (50%≤ ++++)”, the “MS: mood stabilizer” value was “+ (LOQ≤ + <5%)”, the “PS: anti-psychotic” value is “+ (LOQ≤ + <5%)” and the “SD: sedative hypnotic” value is “+ (LOQ≤ + <5%)”. For the same compound, the “UN: uncharacterized CNS activity” value is on record as “+ (LOQ≤ + <5%)”. Besides, under setting [1], the “POTENCY (minimal effective dose, MED)” value was “A-B”.
Regarding `CNC[C@@H]1OCCc2c(C)cccc21` [Example 39, (R)-N-methyl-1-(5-methylisochroman-1-yl)methanamine], the “AD: ADHD (SmartCube probability)” value is listed as “+ (LOQ≤ + <5%)”, the “AG: analgesic (SmartCube probability)” value is recorded as “++ (5%≤ ++ <25%)”, the “AX: anxiolytic (SmartCube probability)” value is reported as “++ (5%≤ ++ <25%)” and the “CE: cognitive enhancer” value is reported as “++ (5%≤ ++ <25%)”. Further, the “DP: anti-depressant” value is recorded as “++++ (50%≤ ++++)”, the “MS: mood stabilizer” value is “+ (LOQ≤ + <5%)”, the “PS: anti-psychotic” value is recorded as “++ (5%≤ ++ <25%)” and the “SD: sedative hypnotic” value was “+ (LOQ≤ + <5%)”. For the same compound, the “UN: uncharacterized CNS activity” value was “+++ (25%≤ +++ <50%)”. For the same compound, the minimal effective dose under setting [1] is under 3 mg/kg.
Take `CNC[C@H]1OCc2cccc(F)c21` [Example 68, (S)-1-(7-fluoro-1,3-dihydroisobenzofuran-1-yl)-N-methylmethanamine]: the “AD: ADHD (SmartCube probability)” value was “+ (LOQ≤ + <5%)”, the “AG: analgesic (SmartCube probability)” value is on record as “++ (5%≤ ++ <25%)”, the “AX: anxiolytic (SmartCube probability)” value is “++ (5%≤ ++ <25%)” and the “CE: cognitive enhancer” value is recorded as “++ (5%≤ ++ <25%)”. In addition, the “DP: anti-depressant” value is recorded as “++ (5%≤ ++ <25%)”, the “MS: mood stabilizer” value is given as “+ (LOQ≤ + <5%)”, the “PS: anti-psychotic” value is “++ (5%≤ ++ <25%)” and the “SD: sedative hypnotic” value is “+++ (25%≤ +++ <50%)”. The “UN: uncharacterized CNS activity” value was “++ (5%≤ ++ <25%)”. Besides, the minimal effective dose under setting [1] is 3 to 10 mg/kg.
As for `CNC[C@@H]1OCCc2ccc3c(c21)OCC3` [Example 105, (R)-N-methyl-1-(2,3,6,9-tetrahydro-7H-furo[3,2-h]isochromen-9-yl)methanamine], the “AD: ADHD (SmartCube probability)” value was “+ (LOQ≤ + <5%)”, the “AG: analgesic (SmartCube probability)” value was “+ (LOQ≤ + <5%)”, the “AX: anxiolytic (SmartCube probability)” value is reported as “++ (5%≤ ++ <25%)” and the “CE: cognitive enhancer” value is “+ (LOQ≤ + <5%)”. The “DP: anti-depressant” value was “++ (5%≤ ++ <25%)”, the “MS: mood stabilizer” value is given as “+ (LOQ≤ + <5%)”, the “PS: anti-psychotic” value is recorded as “++ (5%≤ ++ <25%)” and the “SD: sedative hypnotic” value was “+++ (25%≤ +++ <50%)”. Also, the “UN: uncharacterized CNS activity” value is “+ (LOQ≤ + <5%)”. Under setting [1], the minimal effective dose is under 3 mg/kg.
Turning to `Cc1cccc2c1[C@H](CN)OCC2` [Example 75, (R)-(8-methylisochroman-1-yl)methanamine], the “AD: ADHD (SmartCube probability)” value is “+ (LOQ≤ + <5%)”, the “AG: analgesic (SmartCube probability)” value is reported as “++ (5%≤ ++ <25%)”, the “AX: anxiolytic (SmartCube probability)” value was “++ (5%≤ ++ <25%)” and the “CE: cognitive enhancer” value is on record as “++ (5%≤ ++ <25%)”. In addition, the “DP: anti-depressant” value was “++ (5%≤ ++ <25%)”, the “MS: mood stabilizer” value is on record as “+ (LOQ≤ + <5%)”, the “PS: anti-psychotic” value is listed as “++ (5%≤ ++ <25%)” and the “SD: sedative hypnotic” value is “+ (LOQ≤ + <5%)”. The “UN: uncharacterized CNS activity” value is reported as “++++ (50%≤ ++++)”. The minimal effective dose under setting [1] fell in the range of 3 to 10 mg/kg.
`CNC[C@@H]1OCc2c(Cl)cccc21` [Example 93, (R)-1-(4-chloro-1,3-dihydroisobenzofuran-1-yl)-N-methyl-methanamine]: the “AD: ADHD (SmartCube probability)” value was “+++ (25%≤ +++ <50%)”, the “AG: analgesic (SmartCube probability)” value is recorded as “++ (5%≤ ++ <25%)”, the “AX: anxiolytic (SmartCube probability)” value is on record as “+++ (25%≤ +++ <50%)” and the “CE: cognitive enhancer” value was “++ (5%≤ ++ <25%)”. The “DP: anti-depressant” value was “++ (5%≤ ++ <25%)”, the “MS: mood stabilizer” value is reported as “+ (LOQ≤ + <5%)”, the “PS: anti-psychotic” value was “+ (LOQ≤ + <5%)” and the “SD: sedative hypnotic” value is “++ (5%≤ ++ <25%)”. Besides, the “UN: uncharacterized CNS activity” value was “++++ (50%≤ ++++)”. The minimal effective dose under setting [1] was under 3 mg/kg.
Take `NC[C@H]1OCCc2c1ccc1c2OCO1` [Example 11, (S)-(8,9-dihydro-6H-[1,3]dioxolo[4,5-f]isochromen-6-yl)methanamine]: the “AD: ADHD (SmartCube probability)” value was “++ (5%≤ ++ <25%)”, the “AG: analgesic (SmartCube probability)” value is “+ (LOQ≤ + <5%)”, the “AX: anxiolytic (SmartCube probability)” value was “+ (LOQ≤ + <5%)” and the “CE: cognitive enhancer” value is “+ (LOQ≤ + <5%)”. Moreover, the “DP: anti-depressant” value is on record as “++++ (50%≤ ++++)”, the “MS: mood stabilizer” value is given as “+ (LOQ≤ + <5%)”, the “PS: anti-psychotic” value is reported as “+ (LOQ≤ + <5%)” and the “SD: sedative hypnotic” value is “+ (LOQ≤ + <5%)”. Also, the “UN: uncharacterized CNS activity” value was “+ (LOQ≤ + <5%)”. For the same compound, the minimal effective dose under setting [1] lay in the range of 3 to 10 mg/kg.
With `NC[C@@H]1OCCc2c1ccc1c2OCO1` [Example 12, (R)-(8,9-dihydro-6H-[1,3]dioxolo[4,5-f]isochromen-6-yl)methanamine], the “AD: ADHD (SmartCube probability)” value is on record as “+ (LOQ≤ + <5%)”, the “AG: analgesic (SmartCube probability)” value is “++ (5%≤ ++ <25%)”, the “AX: anxiolytic (SmartCube probability)” value was “+ (LOQ≤ + <5%)” and the “CE: cognitive enhancer” value is recorded as “+ (LOQ≤ + <5%)”. Moreover, the “DP: anti-depressant” value is “++++ (50%≤ ++++)”, the “MS: mood stabilizer” value was “+ (LOQ≤ + <5%)”, the “PS: anti-psychotic” value is “++ (5%≤ ++ <25%)” and the “SD: sedative hypnotic” value was “++ (5%≤ ++ <25%)”. Besides, the “UN: uncharacterized CNS activity” value is “++ (5%≤ ++ <25%)”. Moreover, the minimal effective dose under setting [1] fell in the range of 3 to 10 mg/kg.
`CNC[C@@H]1OCCc2cccc(Cl)c21` [Example 37, (R)-1-(8-chloroisochroman-1-yl)-N-methylmethanamine]: the “AD: ADHD (SmartCube probability)” value was “+ (LOQ≤ + <5%)”, the “AG: analgesic (SmartCube probability)” value was “++ (5%≤ ++ <25%)”, the “AX: anxiolytic (SmartCube probability)” value is given as “+ (LOQ≤ + <5%)” and the “CE: cognitive enhancer” value is listed as “++ (5%≤ ++ <25%)”. Moreover, the “DP: anti-depressant” value is reported as “++ (5%≤ ++ <25%)”, the “MS: mood stabilizer” value was “+ (LOQ≤ + <5%)”, the “PS: anti-psychotic” value is “++ (5%≤ ++ <25%)” and the “SD: sedative hypnotic” value is listed as “+ (LOQ≤ + <5%)”. In addition, the “UN: uncharacterized CNS activity” value was “++++ (50%≤ ++++)”. In addition, the minimal effective dose under setting [1] is under 3 mg/kg.
Regarding `CNC[C@H]1OCCc2ccc3c(c21)CCO3` [Example 108, (S)-N-methyl-1-(3,4,8,9-tetrahydro-1H-furo[2,3-h]isochromen-1-yl)methanamine], the “AD: ADHD (SmartCube probability)” value was “+ (LOQ≤ + <5%)”, the “AG: analgesic (SmartCube probability)” value is recorded as “+ (LOQ≤ + <5%)”, the “AX: anxiolytic (SmartCube probability)” value was “+ (LOQ≤ + <5%)” and the “CE: cognitive enhancer” value is listed as “+ (LOQ≤ + <5%)”. Besides, the “DP: anti-depressant” value was “++ (5%≤ ++ <25%)”, the “MS: mood stabilizer” value was “+ (LOQ≤ + <5%)”, the “PS: anti-psychotic” value is recorded as “++ (5%≤ ++ <25%)” and the “SD: sedative hypnotic” value was “+ (LOQ≤ + <5%)”. Moreover, the “UN: uncharacterized CNS activity” value is “++++ (50%≤ ++++)”. Further, the minimal effective dose under setting [1] lay within 3 to 10 mg/kg.
As for `CNC[C@H]1OCC(F)(F)c2ccccc21` [Example 27, (S)-1-(4,4-difluoroisochroman-1-yl)-N-methylmethanamine], the “AD: ADHD (SmartCube probability)” value is “+ (LOQ≤ + <5%)”, the “AG: analgesic (SmartCube probability)” value was “++ (5%≤ ++ <25%)”, the “AX: anxiolytic (SmartCube probability)” value is recorded as “++ (5%≤ ++ <25%)” and the “CE: cognitive enhancer” value was “++ (5%≤ ++ <25%)”. For the same compound, the “DP: anti-depressant” value is recorded as “++ (5%≤ ++ <25%)”, the “MS: mood stabilizer” value is listed as “+ (LOQ≤ + <5%)”, the “PS: anti-psychotic” value is “+ (LOQ≤ + <5%)” and the “SD: sedative hypnotic” value was “+ (LOQ≤ + <5%)”. Moreover, the “UN: uncharacterized CNS activity” value is on record as “+++ (25%≤ +++ <50%)”. In addition, the minimal effective dose under setting [1] is 10 to 30 mg/kg.
